Measurements: publication PMC9379551, “Structure of cytosine transport protein CodB provides insight into nucleobase‐cation symporter 1 mechanism” (The EMBO Journal, 2022)

Legend:
CodB [1] = target: T1, CodB (Proteus vulgaris, UniProt A0A6G6SKI1); experiment: GFP thermostability assay titration (Kd); inhibition of 3H-cytosine uptake in cells; assay type: binding; parameters: CodB from P. vulgaris expressed as CodB-GFP fusion, detergent-solubilised membranes
CodB [2] = target: T1, CodB; experiment: crystal structure at […] Å; GFP thermostability assay titration (Kd); sodium-dependent 3H-cytosine uptake in cells; assay type: binding; parameters: CodB from P. vulgaris expressed as CodB-GFP fusion (GFP-TS assay); cleaved with 3C protease for crystallisation

T1 sequence (A0A6G6SKI1 entry or part of it): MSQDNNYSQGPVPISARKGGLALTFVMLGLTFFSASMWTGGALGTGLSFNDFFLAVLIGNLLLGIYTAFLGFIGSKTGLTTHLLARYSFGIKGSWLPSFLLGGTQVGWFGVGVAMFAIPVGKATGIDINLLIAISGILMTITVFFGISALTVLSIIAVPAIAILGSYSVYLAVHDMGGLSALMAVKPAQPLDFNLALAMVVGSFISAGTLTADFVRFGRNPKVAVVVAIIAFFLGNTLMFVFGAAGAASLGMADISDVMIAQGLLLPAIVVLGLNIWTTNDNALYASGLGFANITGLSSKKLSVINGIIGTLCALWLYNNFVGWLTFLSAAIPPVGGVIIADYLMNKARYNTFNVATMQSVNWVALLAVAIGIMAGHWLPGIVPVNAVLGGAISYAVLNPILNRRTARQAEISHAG

SMILES | Kd (CodB [1]) [µM] | Kd (CodB [2]) [µM]
Nc1nc(=O)[nH]cc1F [5-fluorocytosine] | 285 ± 39 | –
Nc1cc[nH]c(=O)n1 [cytosine] | – | 51 ± 9
